Reference: patent US20250313535A1, “ALPHA 4 BETA 7 INTEGRIN MODULATORS AND USES THEREOF” (DICE MOLECULES SV, INC., priority 2022, published 2025)
Read-outs that look alike come from different tables or passages of the source.

Columns and labels:
α4β1 integrin = α4β1 integrin (Homo sapiens (Human), UniProt P05556+P13612); experiment: Integrin Adhesion Assay: Protocol 5 (VCAM-coated plate, RPMI-8866 cells with stable LOF mutation of the ITGB7 gene); type: cell-based
Outline: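 RPMI-8866 B cells with CRISPR/Cas9 ITGB7 knockout (clonal, verified by flow cytometry) adhered to VCAM-coated wells for 1 h at 37° C in HEPES/NaCl buffer with 1 mM MnCl2, 0.1 mM CaCl2, 1% BSA, 1% DMSO. Bound cells quantified by CellTiter-Glo luminescence after washing; % inhibition versus DMSO and control, 4-parameter fit.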

α4β7 integrin = α4β7 integrin (Homo sapiens (Human), UniProt P13612+P26010); experiment: Integrin Adhesion Assay: Protocol 4 (MAdCAM-coated plate, RPMI-8866 cells with stable LOF mutation of the ITGB1 gene); type: cell-based
α4β7 integrin, sequence (P13612 34-1032): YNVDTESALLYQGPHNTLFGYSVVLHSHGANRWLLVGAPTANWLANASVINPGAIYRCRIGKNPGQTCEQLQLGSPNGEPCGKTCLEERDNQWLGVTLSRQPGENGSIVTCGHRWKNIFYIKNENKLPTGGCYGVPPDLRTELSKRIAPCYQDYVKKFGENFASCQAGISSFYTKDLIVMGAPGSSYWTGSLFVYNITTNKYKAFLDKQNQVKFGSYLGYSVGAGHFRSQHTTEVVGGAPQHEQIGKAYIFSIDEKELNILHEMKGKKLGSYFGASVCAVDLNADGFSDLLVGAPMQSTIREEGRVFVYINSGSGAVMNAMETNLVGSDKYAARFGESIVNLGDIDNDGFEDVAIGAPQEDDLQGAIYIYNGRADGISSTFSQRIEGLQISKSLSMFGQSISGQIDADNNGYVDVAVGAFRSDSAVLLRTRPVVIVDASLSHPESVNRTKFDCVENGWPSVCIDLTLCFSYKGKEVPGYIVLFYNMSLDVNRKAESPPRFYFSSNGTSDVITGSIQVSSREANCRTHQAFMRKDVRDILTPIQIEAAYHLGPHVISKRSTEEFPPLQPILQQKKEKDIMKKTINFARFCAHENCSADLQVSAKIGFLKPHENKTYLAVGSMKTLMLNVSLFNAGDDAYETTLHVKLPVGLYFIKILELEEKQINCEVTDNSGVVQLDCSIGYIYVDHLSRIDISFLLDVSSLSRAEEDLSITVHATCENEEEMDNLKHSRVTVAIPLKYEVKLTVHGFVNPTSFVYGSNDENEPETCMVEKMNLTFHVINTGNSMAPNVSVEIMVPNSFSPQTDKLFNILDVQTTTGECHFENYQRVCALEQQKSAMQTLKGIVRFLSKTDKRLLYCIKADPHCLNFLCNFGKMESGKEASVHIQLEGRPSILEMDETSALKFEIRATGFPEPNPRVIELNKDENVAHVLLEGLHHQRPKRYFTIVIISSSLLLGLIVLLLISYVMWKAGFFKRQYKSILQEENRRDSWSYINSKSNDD
α4β7 integrin, sequence (P26010 20-798): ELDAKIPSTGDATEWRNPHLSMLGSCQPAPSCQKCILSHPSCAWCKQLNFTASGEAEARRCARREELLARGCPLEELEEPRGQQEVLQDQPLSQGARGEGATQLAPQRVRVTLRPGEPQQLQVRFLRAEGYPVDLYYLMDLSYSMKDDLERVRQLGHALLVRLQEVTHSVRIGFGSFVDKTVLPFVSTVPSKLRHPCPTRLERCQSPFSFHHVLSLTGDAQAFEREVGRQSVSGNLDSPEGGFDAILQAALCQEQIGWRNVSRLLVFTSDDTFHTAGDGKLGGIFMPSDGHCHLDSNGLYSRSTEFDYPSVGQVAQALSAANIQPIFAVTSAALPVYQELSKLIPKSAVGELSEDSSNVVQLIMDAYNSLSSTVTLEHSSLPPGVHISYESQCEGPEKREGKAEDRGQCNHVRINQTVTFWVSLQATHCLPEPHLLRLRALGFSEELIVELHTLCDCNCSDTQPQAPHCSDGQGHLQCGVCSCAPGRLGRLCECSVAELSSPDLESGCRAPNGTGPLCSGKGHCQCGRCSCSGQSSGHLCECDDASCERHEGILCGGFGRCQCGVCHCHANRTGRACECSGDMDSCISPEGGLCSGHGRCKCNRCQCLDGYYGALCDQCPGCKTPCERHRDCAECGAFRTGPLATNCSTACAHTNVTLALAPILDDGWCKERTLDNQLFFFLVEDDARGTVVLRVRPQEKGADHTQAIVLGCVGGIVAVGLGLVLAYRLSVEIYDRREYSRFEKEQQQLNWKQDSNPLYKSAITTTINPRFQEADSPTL
Outline: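 RPMI-8866 cells with CRISPR/Cas9 knockout of ITGB1 (2×10^6/mL) were added to MAdCAM-coated wells with compound (1% DMSO) in HEPES/NaCl buffer with 1 mM MnCl2, 0.1 mM CaCl2 and 1% BSA, then incubated 1 h at 37 °C. After four washes, adherent cells were quantified by CellTiter-Glo luminescence. Percent inhibition versus DMSO and control compound was fitted to 4-parameter curves.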

[1] = RPMI-8866 cells with stable LOF mutation of the ITGB7 gene, read-out: Mean IC50 α4β1 KO^b
[2] = RPMI-8866 cells with stable LOF mutation of the ITGB1 gene, read-out: Mean IC50 α4β7 KO^a
[3] = Protocol 5, RPMI-8866 cells with LOF mutation of ITGB7, VCAM, read-out: Mean IC50 α4β1 KO
[4] = Protocol 4, RPMI-8866 cells with LOF mutation of ITGB1, MAdCAM, read-out: Mean IC50 α4β7 KO

α4β1 integrin, sequence (P13612 34-1032): as the sequence (P13612 34-1032) above
α4β1 integrin, sequence (P05556 21-798): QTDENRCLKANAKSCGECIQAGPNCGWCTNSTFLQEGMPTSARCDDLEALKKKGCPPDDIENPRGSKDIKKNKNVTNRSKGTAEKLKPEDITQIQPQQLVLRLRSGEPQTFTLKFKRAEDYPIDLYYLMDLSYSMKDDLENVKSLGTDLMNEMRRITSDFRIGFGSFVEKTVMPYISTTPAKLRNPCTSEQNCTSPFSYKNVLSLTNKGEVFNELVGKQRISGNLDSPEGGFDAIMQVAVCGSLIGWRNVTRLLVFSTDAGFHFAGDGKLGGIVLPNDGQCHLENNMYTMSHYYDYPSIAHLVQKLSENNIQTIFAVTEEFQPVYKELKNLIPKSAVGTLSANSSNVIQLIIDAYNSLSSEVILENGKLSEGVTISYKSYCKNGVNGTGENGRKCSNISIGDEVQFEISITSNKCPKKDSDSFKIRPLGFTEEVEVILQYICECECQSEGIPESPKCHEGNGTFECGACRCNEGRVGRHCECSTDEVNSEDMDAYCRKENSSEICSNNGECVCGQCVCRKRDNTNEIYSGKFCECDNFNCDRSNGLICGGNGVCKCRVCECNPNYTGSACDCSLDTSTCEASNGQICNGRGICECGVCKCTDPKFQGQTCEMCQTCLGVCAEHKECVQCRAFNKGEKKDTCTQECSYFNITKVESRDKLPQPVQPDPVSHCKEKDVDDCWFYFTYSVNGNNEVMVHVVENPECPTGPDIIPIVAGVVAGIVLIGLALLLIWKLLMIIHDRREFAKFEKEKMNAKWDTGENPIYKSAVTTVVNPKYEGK

| Structure (SMILES) | IC50 (α4β1 integrin; [1]) [nM] | IC50 (α4β7 integrin; [2]) [nM] | IC50 (α4β1 integrin; [3]) [nM] | IC50 (α4β7 integrin; [4]) [nM] |
| --- | --- | --- | --- | --- |
| CCC1(C(=O)N[C@@H](Cc2cccc3c(-c4ncc(CN5CCCCC5)c5ccccc45)cccc23)C(=O)O)CCN(CC(F)(F)F)CC1 [Compound 676] | > 1000 | < 10 | – | – |
| Cc1cccc(F)c1C(=O)N[C@@H](Cc1cccc2c(-c3c(C(F)(F)F)c4cc(CCN5CCC(F)(F)C5)ccc4n(C)c3=O)cccc12)C(=O)O [Compound 712] | – | – | > 1000 | 10 to 100 |
| COc1ccc(CCN2CCCCC2)cc1-c1cccc2c(C[C@H](NC(=O)C3(C(F)(F)F)CCN(CC(F)(F)F)CC3)C(=O)O)cccc12 [Compound 731] | – | – | 100 to 1000 | < 10 |
| O=C(O)[C@H](Cc1cccc2c(-c3nccc4ccccc34)cccc12)NC(=O)C1(C(F)(F)F)CCN(C2COC2)CC1 [Compound 497] | > 1000 | < 10 | – | – |
| COc1ccc(CN2CCC(C)(C)CC2)c(C(F)(F)F)c1-c1cccc2c(C[C@H](NC(=O)C3(C(F)(F)F)CCN(CC(F)(F)F)CC3)C(=O)O)cccc12 [Compound 819] | – | – | 100 to 1000 | < 10 |
| COCCN1CCC(C(=O)N[C@@H](Cc2cccc3c(-c4c(C(F)(F)F)c5ccccc5n(C)c4=O)cccc23)C(=O)O)(C(F)(F)F)CC1 [Compound 502] | 100 to 1000 | < 10 | – | – |
| COc1ccc(CN2CCCCC2(C)C)c(OC)c1-c1cccc2c(C[C@H](NC(=O)c3c(C)cccc3F)C(=O)O)cccc12 [Compound 630] | 100 to 1000 | < 10 | – | – |
| COc1ccc(CN2CCC(F)(F)C2)c(OC)c1-c1cccc2c(C[C@H](NC(=O)C3(C(F)(F)F)CCN(CC(F)(F)F)CC3)C(=O)O)cccc12 [Compound 783] | – | – | > 1000 | 10 to 100 |
| COc1ccc(CN(C)C)c(OC)c1-c1cccc2c(C[C@H](NC(=O)c3c(C)cc(NCC(F)(F)F)cc3F)C(=O)O)cccc12 [Compound 607] | 100 to 1000 | < 10 | – | – |
| COc1cccc(CCN2CCCC(F)C2)c1-c1cccc2c(C[C@H](NC(=O)C3(C(F)(F)F)CCN(CC(F)(F)F)CC3)C(=O)O)cccc12 (some centres unmarked) [Compound 959] | – | – | 100 to 1000 | < 10 |
| COc1cccc(CCN2CCC[C@H](F)C2)c1-c1cccc2c(C[C@H](NC(=O)c3c(C)cccc3F)C(=O)O)cccc12 [Compound 1037] | – | – | > 1000 | < 10 |
| O=C(O)[C@H](Cc1cccc2c(-c3ncc(CN4CCN(C5CC5)CC4)cc3C3CC3)cccc12)NC(=O)C1(C(F)(F)F)CCN(CC(F)(F)F)CC1 [Compound 948] | – | – | 100 to 1000 | < 10 |
| COc1ccc(CN2CCC(F)CC2)c(C(F)(F)F)c1-c1cccc2c(C[C@H](NC(=O)C3(C(F)(F)F)CCN(CC(F)(F)F)CC3)C(=O)O)cccc12 [Compound 821] | – | – | > 1000 | 10 to 100 |
| COc1cc(CN2CCC(C)(C)CC2)cnc1-c1cccc2c(C[C@H](NC(=O)C3(C(F)(F)F)CCN(CC(F)F)CC3)C(=O)O)cccc12 [Compound 924] | – | – | > 1000 | < 10 |
| O=C(O)[C@H](Cc1cccc2c(-c3ccc(CN4CCCCC4)cn3)cccc12)NC(=O)C1(C(F)(F)F)CCN(CC(F)(F)F)CC1 [Compound 903] | – | – | > 1000 | 10 to 100 |
| O=C(O)[C@H](Cc1cccc2c(-c3ncc(CN4CC5CC(C4)O5)c4ccccc34)cccc12)NC(=O)C1(C(F)(F)F)CCN(CC(F)(F)F)CC1 [Compound 867] | – | – | > 1000 | < 10 |
| Cc1cccc(F)c1C(=O)N[C@@H](Cc1cccc2c(-c3ncccc3CN3CCCCC3)cccc12)C(=O)O [Compound 1021] | – | – | > 1000 | 10 to 100 |
| COc1ccc(CN2CCN(CC(C)C)CC2)c(OC)c1-c1cccc2c(C[C@H](NC(=O)C3(C(F)(F)F)CCN(CC(F)(F)F)CC3)C(=O)O)cccc12 [Compound 805] | – | – | 100 to 1000 | < 10 |
| COc1ccc(CN2CCC(F)(F)CC2)cc1-c1cccc2c(C[C@H](NC(=O)C3(C(F)(F)F)CCN(CC(F)F)CC3)C(=O)O)cccc12 [Compound 927] | – | – | 100 to 1000 | < 10 |
| O=C(O)[C@H](Cc1cccc2c(-c3nccc4c(CN5CCOCC5)cccc34)cccc12)NC(=O)C1(C(F)(F)F)CCN(CC(F)(F)F)CC1 [Compound 559] | > 1000 | < 10 | – | – |

| Structure (SMILES) | IC50 (α4β1 integrin; [1]) [nM] | IC50 (α4β7 integrin; [2]) [nM] | IC50 (α4β1 integrin; [3]) [nM] | IC50 (α4β7 integrin; [4]) [nM] |
| --- | --- | --- | --- | --- |
| COc1ccc(CN2CCCC(C)(C)C2)c(OC)c1-c1cccc2c(C[C@H](NC(=O)C3(C(F)(F)F)CCN(CC(F)(F)F)CC3)C(=O)O)cccc12 [Compound 791] | – | – | > 1000 | < 10 |
| COc1ccc(CN2CCCC(C)(C)CC2)c(OC)c1-c1cccc2c(C[C@H](NC(=O)C3(C(F)(F)F)CCN(CC(F)(F)F)CC3)C(=O)O)cccc12 [Compound 812] | – | – | > 1000 | 10 to 100 |
| Cn1c(=O)c(-c2cccc3c(C[C@H](NC(=O)c4c(F)cccc4CN4CCC(C)(C)C4)C(=O)O)cccc23)c(C(F)(F)F)c2ccccc21 [Compound 487] | > 1000 | 10 to 100 | – | – |
| O=C(O)[C@H](Cc1cccc2c(-c3ncc(CN4CC5CCC(C4)O5)c4ccccc34)cccc12)NC(=O)C1(C(F)(F)F)CCN(CC(F)(F)F)CC1 [Compound 872] | – | – | > 1000 | 10 to 100 |
| CCOCc1cc(OC)c(-c2cccc3c(C[C@H](NC(=O)C4(C(F)(F)F)CCN(CC(F)(F)F)CC4)C(=O)O)cccc23)c(OC)c1 [Compound 430] | 100 to 1000 | < 10 | – | – |
| C[C@@H]1CN(Cc2cnc(-c3cccc4c(C[C@H](NC(=O)C5(C(F)(F)F)CCN(CC(F)(F)F)CC5)C(=O)O)cccc34)c3ccccc23)C[C@H](C)O1 [Compound 863] | – | – | > 1000 | 10 to 100 |
| COc1cccc(CCN2CCCCC2)c1-c1cccc2c(C[C@H](NC(=O)C3(C(F)(F)F)CCN(CC(F)(F)F)CC3)C(=O)O)cccc12 [Compound 956] | – | – | 100 to 1000 | < 10 |
| O=C(O)[C@H](Cc1cccc2c(-c3ccc(CN4CCCCC4)c4ccncc34)cccc12)NC(=O)C1(C(F)(F)F)CCN(CC(F)(F)F)CC1 [Compound 702] | – | – | > 1000 | < 10 |
| COc1ccc(CN2CCC(F)CC2)cc1-c1cccc2c(C[C@H](NC(=O)C3(C(F)(F)F)CCN(CC(F)F)CC3)C(=O)O)cccc12 [Compound 940] | – | – | 100 to 1000 | < 10 |
| COc1ccc(CCN2CCCCC2)c(C(F)(F)F)c1-c1cccc2c(C[C@H](NC(=O)c3c(C)cccc3F)C(=O)O)cccc12 [Compound 1004] | – | – | 100 to 1000 | < 10 |
| COCc1ccc2c(c1)c(C(F)(F)F)c(-c1cccc3c(CC(NC(=O)c4c(F)cccc4F)C(=O)O)cccc13)c(=O)n2C (centres unmarked) [Compound 1041] | – | – | > 1000 | 100 to 1000 |
| COc1ccc(CN2CCCCC2)c(OC)c1-c1cccc2c(C[C@H](NC(=O)c3c(F)cccc3C#N)C(=O)O)cccc12 [Compound 646] | > 1000 | 100 to 1000 | – | – |
| COc1ccc(CN2CCC(F)(F)CC2)c(OC)c1-c1cccc2c(C[C@H](NC(=O)c3c(F)cccc3Cl)C(=O)O)cccc12 [Compound 605] | > 1000 | 10 to 100 | – | – |
| O=C(O)[C@H](Cc1cccc2c(-c3ncc(CN4CCC[C@@H](F)C4)c4ccccc34)cccc12)NC(=O)C1(C(F)(F)F)CCN(CC(F)F)CC1 [Compound 860] | – | – | > 1000 | < 10 |
| COc1ccc(CN2CCC(C(F)(F)F)CC2)c(OC)c1-c1cccc2c(C[C@H](NC(=O)c3c(C)cccc3F)C(=O)O)cccc12 [Compound 569] | 100 to 1000 | < 10 | – | – |
| CC[C@@H]1CCCCN1Cc1cnc(-c2cccc3c(C[C@H](NC(=O)C4(C(F)(F)F)CCN(CC(F)(F)F)CC4)C(=O)O)cccc23)c2ccccc12 [Compound 931] | – | – | 100 to 1000 | < 10 |
| COc1ccc(CN2CCCC2C)c(OC)c1-c1cccc2c(C[C@H](NC(=O)c3c(C)cccc3F)C(=O)O)cccc12 (some centres unmarked) [Compound 633] | 10 to 100 | < 10 | – | – |
| CCc1cccc(F)c1C(=O)N[C@@H](Cc1cccc2c(-c3c(OC)ccc(CN4CCCCC4)c3OC)cccc12)C(=O)O [Compound 649] | 100 to 1000 | < 10 | – | – |
| COc1cncc(OC)c1-c1cccc2c(C[C@H](NC(=O)c3c(C)cccc3F)C(=O)O)cccc12 [Compound 477] | 100 to 1000 | < 10 | – | – |
| O=C(O)[C@H](Cc1cccc2c(-c3ccc(CN4CCC(F)CC4)c4ccncc34)cccc12)NC(=O)C1(C(F)(F)F)CCN(CC(F)(F)F)CC1 [Compound 987] | – | – | > 1000 | < 10 |
